# In publication PMC3022525, “Analysis of LhcSR3, a Protein Essential for Feedback De-Excitation in the Green Alga Chlamydomonas reinhardtii” (PLoS Biology, 2011):
# Assays:
# [1] = target: T1, LhcSR3 (Chlamydomonas reinhardtii, UniProt P0DO19); assay: […]-DCCD labelling, SDS-PAGE autoradiography, densitometry; type: binding; conditions: covalent; labelled compound; protonatable residues
# T1 construct: gene LHCSR3.1; precursor 259 residues
# T1 sequence (P0DO19 46-259 limits assumed): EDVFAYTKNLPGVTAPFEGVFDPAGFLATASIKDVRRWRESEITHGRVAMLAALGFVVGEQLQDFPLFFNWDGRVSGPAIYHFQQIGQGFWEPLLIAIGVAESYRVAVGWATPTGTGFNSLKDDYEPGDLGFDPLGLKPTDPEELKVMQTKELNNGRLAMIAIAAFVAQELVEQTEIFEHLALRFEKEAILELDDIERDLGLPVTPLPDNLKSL
# [2] = target: T1, LhcSR3; assay: in vitro reconstitution, HPLC pigment analysis, Soret spectral deconvolution; type: binding
# [3] = refolded with Chl a, Chl b, lutein and violaxanthin (LV complex), sites L1/L2 proposed
SMILES,"in vitro reconstitution, HPLC pigment analysis, Soret spectral deconvolution [2, 3]",also measured
C(=NC1CCCCC1)=NC1CCCCC1 [DCCD],,"14C-DCCD labelling, SDS-PAGE autoradiography, densitometry [1]: LhcSR3 revealed very efficient binding of DCCD, higher than plant CP29"
CC1=C(/C=C/C(C)=C/C=C/C(C)=C/C=C/C=C(C)/C=C/C=C(C)/C=C/C2=C(C)C[C@@H](O)CC2(C)C)C(C)(C)C[C@H](O)C1 [zeaxanthin],,"in vitro reconstitution, HPLC pigment analysis, Soret spectral deconvolution ([2]; refolded with zeaxanthin present besides lutein and violaxanthin (LVZ complex), several sites): implying that Zea entered the three sites, although to different extents"
CC1=C[C@H](O)CC(C)(C)[C@H]1/C=C/C(C)=C/C=C/C(C)=C/C=C/C=C(C)/C=C/C=C(C)/C=C/C1=C(C)C[C@@H](O)CC1(C)C [lutein],lutein and violaxanthin bound to the apoprotein,
CC(/C=C/C=C(C)/C=C/[C@@]12O[C@]1(C)C[C@@H](O)CC2(C)C)=C\C=C\C=C(C)\C=C\C=C(C)\C=C\[C@@]12O[C@]1(C)C[C@@H](O)CC2(C)C [violaxanthin],lutein and violaxanthin bound to the apoprotein,
